From patent US20150290232A1, “DRUG COMPOSITION FOR TREATING TUMORS AND APPLICATION THEREOF” (priority 2012, published 2015)

Tests used:
Type in all cases: cell-based
[1] = test system: Jurkat cells (acute lymphoblastic leukemia); test: MTT cell viability, leukemia cells, TTD and Acla A alone and combined; settings: Homo sapiens, 72 h
Description: (§1) Well-growing leukemia cells were obtained and inoculated into wells of a 96-well cell culture plate at 5000 cells/well. Individual compounds of various concentrations were added, mixed uniformly, and incubated (5% CO2) at 37° C. for 72 hours. Then the cell viability was determined by the MTT method.
(§2) b) Determine the inhibitory effects of TTD in combination with Ada A on leukemia cells in vitro. The pretreatment of the cells was the same as in a). The control group was not treated with the compound while administered. […] After 72 hours of incubation, the MTT method was used for the determination of cell viability. The cell viability of the control group was set to 100% in this experiment, and the TTD, Ada A single drug and combined effects on cell viability (%) were calculated.

[2] = test system: k562/ADR leukemia cells (drug-resistant chronic myeloid leukemia); test: as above; settings: Homo sapiens, K562/Adr, 72 h
Description: as §1, §2

[3] = test system: kasumi-1 cells (acute myeloid leukemia M2 type); test: as above; settings: Homo sapiens, Kasumi 1, 72 h
Description: as §1, §2

[4] = test system: CaES-17 (esophageal cancer cell); test: MTT cell viability, human solid tumor cells; settings: CaEs17, 72 h
Description: (§3) Well-growing cells of above were obtained and inoculated into wells of a 96-well cell culture plate at 5000 cells/well. Individual compounds of various concentrations were added, mixed uniformly, and incubated (5% CO2) at 37° C. for 72 hours. Then the cell viability was determined by the MTT method.
(§4) b) Determine the inhibitory effects of TTD in combination with Ada A on the human solid tumor cells. The pretreatment of the cells was the same as in a). The control group was not treated with the compound while administered. The two single-drug groups were added with respective active component to the concentration under which the IC50 of two compounds in a) achieve. As to the combination group, two compounds were added together into the same group of wells, with the fmal concentration being the concentration to which the IC50 of the single drugs correspond. After 72 hours of incubation, the MTT method was used for the determination of cell viability. The cell viability of the control group was set to 100% in this experiment, and the TTD, Ada A single drug and combined effects on cell viability (%) were calculated.

[5] = test system: Panc-1 (pancreatic cancer); test: MTT cell viability, human solid tumor cells; settings: PANC-1, 72 h
Description: as §3
as §4, with “The two single-drug groups were added with respective active component to the concentration under which the IC50 of two compounds in a) achieve.” left out

[6] = test system: MGC-803 (human gastric cancer cell); test: MTT cell viability, human solid tumor cells; settings: MGC-803, 72 h
Description: as §3
as §4, with “The two single-drug groups were added with respective active component to the concentration under which the IC50 of two compounds in a) achieve.” left out

PC-3 (prostate cancer) = test: MTT cell viability, human solid tumor cells; settings: 72 h
Description: as §3
as §4, with “The two single-drug groups were added with respective active component to the concentration under which the IC50 of two compounds in a) achieve.” left out

[7] = test system: RKO (human colon adenocarcinoma cell); test: MTT cell viability, human solid tumor cells; settings: 72 h
Description: as §3
as §4, with “The two single-drug groups were added with respective active component to the concentration under which the IC50 of two compounds in a) achieve.” left out

[8] = test system: CNE (nasopharyngeal carcinoma cell); test: MTT cell viability, human solid tumor cells; settings: 72 h
Description: as §3
as §4, with “The two single-drug groups were added with respective active component to the concentration under which the IC50 of two compounds in a) achieve.” left out

A549 (human lung cancer) = test: MTT cell viability, human solid tumor cells; settings: A549, 72 h
Description: as §3
as §4, with “The two single-drug groups were added with respective active component to the concentration under which the IC50 of two compounds in a) achieve.” left out

[9] = test system: Hela (human cervical cancer cell); test: MTT cell viability, human solid tumor cells; settings: HeLa, 72 h
Description: as §3
as §4, with “The two single-drug groups were added with respective active component to the concentration under which the IC50 of two compounds in a) achieve.” left out

[10] = test system: Hep G2 (human hepatoma carcinoma cell); test: MTT cell viability, human solid tumor cells; settings: HepG2, 72 h
Description: as §3
as §4, with “The two single-drug groups were added with respective active component to the concentration under which the IC50 of two compounds in a) achieve.” left out

[11] = test system: SPC-A-1 (human lung adenocarcinoma cell); test: MTT cell viability, human solid tumor cells; settings: SPCA1, 72 h
Description: as §3
as §4, with “The two single-drug groups were added with respective active component to the concentration under which the IC50 of two compounds in a) achieve.” left out

MG63 (osteosarcoma) = test: MTT cell viability, human solid tumor cells; settings: MG-63, 72 h
Description: as §3
as §4, with “The two single-drug groups were added with respective active component to the concentration under which the IC50 of two compounds in a) achieve.” left out

[12] = test system: Huh7 (human liver cancer cell); test: MTT cell viability, human solid tumor cells; settings: Huh-7, 72 h
Description: as §3
as §4, with “The two single-drug groups were added with respective active component to the concentration under which the IC50 of two compounds in a) achieve.” left out

[13] = test system: SK-OV-3 (ovarian cancer cell); test: MTT cell viability, human solid tumor cells; settings: SK-OV-3, 72 h
Description: as §3
as §4, with “The two single-drug groups were added with respective active component to the concentration under which the IC50 of two compounds in a) achieve.” left out

[14] = test system: U87-MG (malignant glioma cell); test: MTT cell viability, human solid tumor cells; settings: U-87 MG, 72 h
Description: as §3
as §4, with “The two single-drug groups were added with respective active component to the concentration under which the IC50 of two compounds in a) achieve.” left out

[15] = test system: Hep2 (laryngeal carcinoma); test: MTT cell viability, human solid tumor cells; settings: HEp-2, 72 h
Description: as §3
as §4, with “The two single-drug groups were added with respective active component to the concentration under which the IC50 of two compounds in a) achieve.” left out

[16] = test system: Becap-37 (human breast cancer cell); test: MTT cell viability, human solid tumor cells; settings: 72 h
Description: as §3
as §4, with “The two single-drug groups were added with respective active component to the concentration under which the IC50 of two compounds in a) achieve.” left out

[17] = read-out: concentration (IC50 value of 72 hours)

Compound: CC[C@@]1(O)C[C@H](O[C@H]2C[C@H](N(C)C)[C@H](O[C@H]3C[C@H](O)[C@H](O[C@H]4CCC(=O)[C@H](C)O4)[C@H](C)O3)[C@H](C)O2)c2c(cc3c(c2O)C(=O)c2c(O)cccc2C3=O)[C@H]1C(=O)OC [Acla A, aclarubicin A]
- viability at 0.029 µg/mL ([1]; read-out: CV (cell viability)): 58%
- IC50 [1, 17]: 0.029 µg/mL
- viability at 0.09 µg/mL ([2]; read-out: CV (cell viability)): 49.1%
- IC50 [2, 17]: 0.09 µg/mL
- viability at 0.04 µg/mL ([3]; read-out: CV (cell viability)): 52.5%
- IC50 [3, 17]: 0.04 µg/mL
- viability at 0.24 µg/mL ([4]; read-out: CV (cell viability)): 45.4%
- IC50 [4, 17]: 0.24 µg/mL
- viability at 0.25 µg/mL ([5]; read-out: CV (cell viability)): 58%
- IC50 [5, 17]: 0.25 µg/mL
- viability at 0.1 µg/mL ([6]; read-out: CV (cell viability)): 42.2%
- IC50 [6, 17]: 0.1 µg/mL
- viability at 0.8 µg/mL (PC-3 (prostate cancer); read-out: CV (cell viability)): 46.1%
- IC50 (PC-3 (prostate cancer); [17]): 0.8 µg/mL
- viability at 0.04 µg/mL ([7]; read-out: CV (cell viability)): 49.6%
- IC50 [7, 17]: 0.04 µg/mL
- viability at 0.15 µg/mL ([8]; read-out: CV (cell viability)): 48.9%
- IC50 [8, 17]: 0.15 µg/mL
- viability at 0.08 µg/mL (A549 (human lung cancer); read-out: CV (cell viability)): 50.4%
- IC50 (A549 (human lung cancer); [17]): 0.08 µg/mL
- viability at 0.095 µg/mL ([9]; read-out: CV (cell viability)): 52.7%
- IC50 [9, 17]: 0.095 µg/mL
- viability at 0.25 µg/mL ([10]; read-out: CV (cell viability)): 51.6%
- IC50 [10, 17]: 0.25 µg/mL
- viability at 0.03125 µg/mL ([11]; read-out: CV (cell viability)): 50.6%
- IC50 [11, 17]: 0.0312 µg/mL
- viability at 0.1 µg/mL (MG63 (osteosarcoma); read-out: CV (cell viability)): 46.6%
- IC50 (MG63 (osteosarcoma); [17]): 0.1 µg/mL
- viability at 0.05 µg/mL ([12]; read-out: CV (cell viability)): 44.5%
- IC50 [12, 17]: 0.05 µg/mL
- viability at 0.25 µg/mL ([13]; read-out: CV (cell viability)): 53.4%
- IC50 [13, 17]: 0.25 µg/mL
- viability at 0.21 µg/mL ([14]; read-out: CV (cell viability)): 54.1%
- IC50 [14, 17]: 0.21 µg/mL
- viability at 0.25 µg/mL ([15]; read-out: CV (cell viability)): 51%
- IC50 [15, 17]: 0.25 µg/mL
- viability at 0.5 µg/mL ([16]; read-out: CV (cell viability)): 44.8%
- IC50 [16, 17]: 0.5 µg/mL
